{
  "source": "patent US20260078346A1",
  "about": "“Cell Tissue Production Method, Application Method and Application Device” (NTN Corporation, priority 2022, published 2026)",
  "key": {"[1]": {"system": "2D tissue (planarly cultured iPS cardiomyocytes and normal human cardiac fibroblasts)", "assay": "Ca2+ transient waveform change on addition of isoproterenol, 2D tissue", "assay_type": "cell-based", "details": "increasing isoproterenol concentration (nM)", "method": "(§1) After a myocardial tissue after being cultured for seven days was dyed, Ca^2+ transient measurement was performed from the viewpoint of checking a function of myocardial contraction. The measurement was performed for a myocardial tissue after culture (hereinafter described as “application tissue”) illustrated in FIG. 29 in this example and a planarly cultured tissue (hereinafter described as “2D tissue”) serving as a comparative example. In the myocardial tissue in the comparative example, iPS cardiomyocytes (iCell Cardiomyocyte 2) and normal human cardiac fibroblast were set to 4:1 in a number ratio. In the myocardial tissue in the comparative example, 50000 cells per one well were seeded and planarly cultured in the same culture medium as the culture medium of the application tissue obtained by the same application device as the application device in the second embodiment. A result of the Ca^2+ transient measurement is illustrated in the following Table 1.\n(§2) Subsequently, a change in a Ca^2+ transient waveform at the time when isoproterenol that is a β adrenergic receptor agonist was added was evaluated. In general, the isoproterenol raises the heart rate and the contraction force of a cardiomyocyte. The contraction force of the cardiomyocyte has a correlation with the fluorescence intensity (AMP) of the Ca^2+ transient measurement. […]"}, "[2]": {"system": "application tissue (myocardial tissue of iPS cardiomyocytes and normal human cardiac fibroblasts)", "assay": "Ca2+ transient waveform change on addition of isoproterenol, application tissue", "assay_type": "cell-based", "details": "increasing isoproterenol concentration (nM)", "method": "as §1, §2"}},
  "data": [
    {"smiles": "CC(C)NCC(O)c1ccc(O)c(O)c1", "note": "(stereo not shown) [isoproterenol]", "values": [
      {"measurement": "change in BPM when isoproterenol is added", "setting": "[1]; FIG. 31", "result": "rose according to an increase in the isoproterenol concentration"},
      {"measurement": "change in AMP (fluorescence intensity) when isoproterenol is added", "setting": "[1]; FIG. 32", "result": "did not rise much"},
      {"measurement": "change in BPM when isoproterenol is added", "setting": "[2]; FIG. 31", "result": "rose according to an increase in the isoproterenol concentration"},
      {"measurement": "change in AMP (fluorescence intensity) when isoproterenol is added", "setting": "[2]; FIG. 32", "result": "rose depending on the concentration of the isoproterenol"}
    ]}
  ]
}
